Experimental data as given in US20250257051A1, “SUBSTITUTED PYRIMIDINE COMPOUNDS AS TYK2 INHIBITORS” (1910 Genetics Inc., priority 2022, published 2025).
Structures can show the parent of a compound that is named as a salt.

target: human TYK2 (JH2domain-pseudokinase) (Homo sapiens (Human), UniProt P29597); assay: TYK2 JH2 Domain Binding Assay (KINOMEscan competition binding); settings: KINOMEscan; 11-point 3-fold dilution, top concentration 30,000 nM; Kd measurements in duplicate; read-out: TYK JH2 (Kd)
Summary of the method: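 Competition binding of HEK293-expressed, DNA-tagged TYK2 JH2 (G556–D888)-NFkB fusion in crude extract against immobilized ligand, 1 h at room temperature, 0.9% DMSO. Bead-bound kinase quantified by qPCR; Kd from 11-point 3-fold series (top 30,000 nM), duplicate, Hill fit with slope −1.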

Chain of human TYK2 (JH2domain-pseudokinase) (P29597 556-888): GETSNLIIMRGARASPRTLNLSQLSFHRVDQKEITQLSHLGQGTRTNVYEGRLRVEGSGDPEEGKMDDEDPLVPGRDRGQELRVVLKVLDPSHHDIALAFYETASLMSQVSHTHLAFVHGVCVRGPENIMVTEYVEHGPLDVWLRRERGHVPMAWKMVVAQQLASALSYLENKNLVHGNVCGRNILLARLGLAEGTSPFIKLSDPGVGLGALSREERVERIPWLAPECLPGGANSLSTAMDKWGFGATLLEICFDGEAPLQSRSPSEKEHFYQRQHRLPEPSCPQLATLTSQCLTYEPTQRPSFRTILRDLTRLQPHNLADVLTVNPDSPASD

Structure (SMILES) | Kd [nM]
CNC(=O)c1cnc(N2CCCN(C(=O)OC(C)(C)C)CC2)nc1Nc1cccc(-c2ncc(F)cn2)c1OC [Compound 72, Tert-Butyl 4-(4-((3-(5-fluoropyrimidin-2-yl)-2-methoxyphenyl)amino)-5-(methylcarbamoyl)pyrimidin-2-yl)-1,4-diazepane-1-carboxylate] | 4500
COc1c(Nc2nc(N3CCCNCC3)ncc2C(N)=O)cccc1-c1ncc(F)cn1 [Compound 73, 2-(1,4-diazepan-1-yl)-4-((3-(5-fluoropyrimidin-2-yl)-2-methoxyphenyl)amino)pyrimidine-5-carboxamide Hydrochloride] | 150
CNC(=O)c1cnc(N2CCN(C(C)=O)CC2C)nc1Nc1ccccc1S(C)(=O)=O (stereo not shown) [Compound 76, 2-(4-acetyl-2-methylpiperazin-1-yl)-N-methyl-4-((2-(methylsulfonyl)phenyl)amino)pyrimidine-5-carboxamide] | 210
CNC(=O)c1cnc(N2CCCN(C(C)=O)CC2)nc1Nc1cccc(-c2ncc(F)cn2)c1OC [Compound 77, 2-(4-acetyl-1,4-diazepan-1-yl)-4-((3-(5-fluoropyrimidin-2-yl)-2-methoxyphenyl)amino)-N-methylpyrimidine-5-carboxamide] | 170
CS(=O)(=O)c1ccccc1Nc1nc(N2CCCNCC2)ncc1C(N)=O [Compound 79, 2-(1,4-diazepan-1-yl)-4-((2-(methylsulfonyl)phenyl)amino)pyrimidine-5-carboxamide hydrochloride] | 1700
CC(=O)N1CCCN(c2ncc(C(N)=O)c(Nc3ccccc3S(C)(=O)=O)n2)CC1 [Compound 80, 2-(4-acetyl-1,4-diazepan-1-yl)-4-((2-(methylsulfonyl)phenyl)amino)pyrimidine-5-carboxamide] | 950

Second part, the molecule after the results:

Kd [nM] | Structure (SMILES)
800 | CNC(=O)c1cnc(N2CCCNCC2)nc1Nc1cccc(-c2ncc(F)cn2)c1OC [Compound 74, 2-(1,4-diazepan-1-yl)-4-((3-(5-fluoropyrimidin-2-yl)-2-methoxyphenyl)amino)-N-methylpyrimidine-5-carboxamide Hydrochloride]
1300 | CNC(=O)c1cnc(N2CCCN(C(C)=O)CC2)nc1Nc1ccccc1S(C)(=O)=O [Compound 75, 2-(4-acetyl-1,4-diazepan-1-yl)-N-methyl-4-((2-(methylsulfonyl)phenyl)amino)pyrimidine-5-carboxamide]
330 | CS(=O)(=O)c1ccccc1Nc1nc(N2CCC(C(=O)O)CC2)ncc1C(N)=O [Compound 78, 1-(5-carbamoyl-4-((2-(methylsulfonyl)phenyl)amino)pyrimidin-2-yl)piperidine-4-carboxylic Acid]
370 | COc1c(Nc2nc(N3CCCN(C(C)=O)CC3)ncc2C(N)=O)cccc1-c1ncc(F)cn1 [Compound 81, 2-(4-acetyl-1,4-diazepan-1-yl)-4-((3-(5-fluoropyrimidin-2-yl)-2-methoxyphenyl)amino)pyrimidine-5-carboxamide]

same assay, conditions: Table 4: pyrimidinyl compound of Formula I versus compounds with a different heteroaryl core; read-out: TYK JH2 (Kd)

Structure (SMILES) | Kd [nM]
CNC(=O)c1cnc(N2CCC(C(=O)NC)C2)nc1Nc1ccc(C2CC2)nc1 (stereo not shown) [drawing 147] | 170
CNC(=O)c1cnc(N2CCC(C(=O)NC)C2)cc1Nc1ccc(C2CC2)nc1 (stereo not shown) [reference compound] | 10000
CNC(=O)c1nnc(N2CCC(C(=O)NC)C2)cc1Nc1ccc(C2CC2)nc1 (stereo not shown) [reference compound] | 31000
